Results: patent US4870097A, “Pharmaceutical use of derivatives of tryptophan” (priority 1984, dated 1989)

Columns and labels:
[1] = test system: analgesic activity of morphine; test: Tail Flick Test: increase in the analgesic effect of morphine; assay type: in vivo, rats; settings: for percentage variation in the latency of the pain sensation, 10' / percentage variation in the latency of the pain sensation, 20' / percentage variation in the latency of the pain sensation, 30' / percentage variation in the latency of the pain sensation, 45' / percentage variation in the latency of the pain sensation, 60' / percentage variation in the latency of the pain sensation, 90' / M(10'-90') average percentage variation: compound 10 mg/kg i.p. + morphine 2 mg/kg (row Morphine: alone); for percentage variation in the latency of the pain sensation, 10' / percentage variation in the latency of the pain sensation, 20' / percentage variation in the latency of the pain sensation, 30' / percentage variation in the latency of the pain sensation, 45' / percentage variation in the latency of the pain sensation, 60' / percentage variation in the latency of the pain sensation, 90': ± S.E.; for M(10'-90') average percentage variation: mean 10'-90'; for Potency ratio relative to morphine alone: rat, in vivo
Protocol: Increase in the analgesic effect of analgesic-narcotic drugs in rats in the Tail Flick Test
The method is that described by Harris et al. (J. Pharmacol. Exp. Ther. 143 (1964) 141-148).
Male rats are used which have a weight of about 150-200 g and which have not been fasting. A point is chosen on the tail and this is irradiated by a heat source (75° C.) and the time (in seconds) for which the animal remains without moving its tail is measured.
A maximum period of time under the heat source of 8 seconds is chosen after which the animal is, in any case, removed in order to avoid tissue damage. The measurement is effected before (controls) and after treatment with the drugs.
. The percentage variation is calculated for each individual animal by the following formula: [formula] The measurements are carried out 10, 20, 30, 45, 60 and 90 minutes after treatment with the analgesics.
The results obtained are given in Table 1 which records the groups treated and the doses administered, the
average percentage variations (calculated on groups of five animals) in […]

[2] = test system: tolerance induced by morphine; test: Antagonism to the development of tolerance to repeated administration of morphine HCl (tail flick); assay type: in vivo, rats
Protocol: Several of the compounds of the invention were examined to determine any capacity to antagonise the development of tolerance induced by morphine. Groups of six male rats having a weight of about 200-250 were used.
At intervals of 24 hours from the first treatment (time 0), each animal (except for the control group treated with a physiological solution) received 3 mg/kg of morphine hydrochloride i.p. together with 3 mg/kg i.p. of the compounds indicated (with the exception of the group treated solely with morphine).
The determination of the threshold for the pain stimulus was effected at 15°, 30', 45' and 60' intervals from the treatment by the "tail flick" test.

[3] = test system: guinea pig gall bladder contracted with CCK-8; test: Anti-CCK activity on guinea pig gall bladders in vitro; assay type: biochemical; settings: CCK-8 10 ng/ml, concentration antagonising 50% of contracting effect
Protocol: A longitudinal strip of guinea pig gall bladder is placed in a bath of Krebs for isolated organs at a temperature of 32° C. and oxygenated continuously with an oxygen-CO2 mixture (95-5 V/V).
The […] contractions are detected by means of a force transducer and recorded.
The gall bladder is contracted with the use of a CCK-8 solution at a concentration of 10 ng/ml; the antagonistic activity of the compounds of the invention towards the contracting effect of the CCK is determined with the use of different concentrations, the ED50 value, that is the concentration of the compound in mcg/ml capable of antagonising 50% of the contracting effect of the CCK, being determined.
The results obtained are set out in the following table which gives the compounds tested and the ED50 values which are calculated by the method of regression on a test of at least three experiments for each compound studied.

[4] = test system: analgesic activity of DALA; test: Tail Flick test: increase in the analgesic activity of DALA (i.c.v.); assay type: in vivo, rats; settings: b802: 0.001 g/kg
Protocol: In order to check one of the possible mechanisms for the action of the compounds of the invention, that is, their possible inhibition of the enzymatic degradation of endogenous enkephalins, the following experiment was carried out:
A cannula was implanted in the right lateral ventricle of male rats having a weight of 150-200 g (groups of five animals were used) in order to allow the intracerebroventricular (i.c.v.) administration of drugs according to the method of Noble et al (Life Science 6, (1970) 281-291).
The animals were subsequently treated (i.c.v.) with 3 μg of D-ala-methionine-enkephalinamide (DALA) immediately after an injection (i.c.v.) of the compounds under study at the doses given in Table 4. Analgesia was tested for by the Tail Flick method already mentioned, at the times

[5] = days 0-7, 3 mg/kg + morphine (row Morphine: alone)

| SMILES | percentage variation in the latency of the pain sensation, 10' [1] [%] | percentage variation in the latency of the pain sensation, 20' [1] [%] | percentage variation in the latency of the pain sensation, 30' [1] [%] | percentage variation in the latency of the pain sensation, 45' [1] [%] | percentage variation in the latency of the pain sensation, 60' [1] [%] | percentage variation in the latency of the pain sensation, 90' [1] [%] | M(10'-90') average percentage variation [1] [%] | Potency ratio relative to morphine alone [1] | Anti CCK-8 activity, ED50 [3] | other results |
| --- | --- | --- | --- | --- | --- | --- | --- | --- | --- | --- |
| O=C(N[C@@H](Cc1c[nH]c2ccccc12)C(=O)O)OCc1ccc(F)cc1 [Compound 1, N-p-fluorocarbobenzoxy-L-tryptophan] | 37.6 ± 12.9 | 89.2 ± 7.3 | 96.4 ± 3.5 | 82.6 ± 12.5 | 87.2 ± 7.8 | 40.6 ± 17.7 | 72.3 | 2.43 | 59.9 µg/mL | percentage variation in the latency time, day 0 ([2]; day 0, 3 mg/kg i.p. + morphine HCl 3 mg/kg i.p. (row Morphine: alone)): 44.25%; percentage variation in the latency time, day 1 ([2]; day 1, 3 mg/kg i.p. + morphine HCl 3 mg/kg i.p. (row Morphine: alone)): 69.33%; percentage variation in the latency time, day 2 ([2]; day 2, 3 mg/kg i.p. + morphine HCl 3 mg/kg i.p. (row Morphine: alone)): 69.21%; percentage variation in the latency time, day 3 ([2]; day 3, 3 mg/kg i.p. + morphine HCl 3 mg/kg i.p. (row Morphine: alone)): 54.03%; percentage variation in the latency time, day 4 ([2]; day 4, 3 mg/kg i.p. + morphine HCl 3 mg/kg i.p. (row Morphine: alone)): 21.91%; percentage variation in the latency time, day 5 ([2]; day 5, 3 mg/kg i.p. + morphine HCl 3 mg/kg i.p. (row Morphine: alone)): 33.35%; percentage variation in the latency time, day 6 ([2]; day 6, 3 mg/kg i.p. + morphine HCl 3 mg/kg i.p. (row Morphine: alone)): 36.44%; percentage variation in the latency time, day 7 ([2]; day 7, 3 mg/kg i.p. + morphine HCl 3 mg/kg i.p. (row Morphine: alone)): 16.1%; Area subtended (1) [2, 5]: 342.6 Effect-Day; regression line % Effect versus Day [2, 5]: % Effect = - 5.97 Day + 63.96; Area 1 / Area Morphine ([2]; days 0-7, 3 mg/kg + morphine, ratio to morphine alone): 2.44 |
| CCCCCc1ccc(C(=O)N[C@@H](Cc2c[nH]c3ccccc23)C(=O)O)cc1 [Compound 25] | 32.9 ± 17.3 | 63.7 ± 19.1 | 97.5 ± 2.5 | 100.0 ± 0.0 | 100.0 ± 0.0 | 82.9 ± 17.1 | 79.5 | 2.67 | 103.8 µg/mL |  |
| CCCCCCCc1ccc(C(=O)N[C@@H](Cc2c[nH]c3ccccc23)C(=O)O)cc1 [Compound 27] | 73.8 ± 18.1 | 95.2 ± 4.7 | 86.6 ± 9.0 | 87.7 ± 12.3 | 83.8 ± 9.9 | 88.4 ± 8.5 | 85.9 | 2.88 | 148.5 µg/mL |  |
| CCCCCCCCCc1ccc(C(=O)N[C@@H](Cc2c[nH]c3ccccc23)C(=O)O)cc1 [Compound 28] | 79.5 ± 12.7 | 100.0 ± 0.0 | 98.0 ± 2.0 | 100.0 ± 0.0 | 82.2 ± 17.8 | 78.8 ± 11.4 | 89.7 | 3.01 | 18.9 µg/mL |  |
| Cc1ccc(C(=O)N[C@@H](Cc2c[nH]c3ccccc23)C(=O)O)cc1C [Compound 29] | 54.7 ± 14.1 | 62.6 ± 16.5 | 62.8 ± 17.5 | 65.9 ± 16.0 | 51.4 ± 12.7 | 52.5 ± 15.7 | 58.3 | 1.96 | IN (inactive up to 400 mcg/ml) |  |
| O=C(N[C@@H](Cc1c[nH]c2ccccc12)C(=O)O)c1ccc(C(F)(F)F)cc1 [Compound 30] | 9.8 ± 10.5 | 45.6 ± 16.1 | 69.3 ± 22.2 | 62.3 ± 21.9 | 54.8 ± 17.6 | 24.7 ± 15.5 | 43.6 | 1.46 | IN (inactive up to 400 mcg/ml) |  |
| N#Cc1ccc(C(=O)N[C@@H](Cc2c[nH]c3ccccc23)C(=O)O)cc1 [Compound 31] | 67.6 ± 16.1 | 66.3 ± 3.5 | 81.4 ± 14.7 | 73.4 ± 18.0 | 77.4 ± 10.3 | 21.3 ± 16.5 | 64.6 | 2.17 | IN (inactive up to 400 mcg/ml) |  |
| N#Cc1cccc(C(=O)N[C@@H](Cc2c[nH]c3ccccc23)C(=O)O)c1 [Compound 32] | 18.7 ± 6.7 | 60.7 ± 15.5 | 63.7 ± 16.3 | 63.7 ± 16.3 | 45.8 ± 16.1 | 22.8 ± 12.2 | 43.0 | 1.44 | IN (inactive up to 400 mcg/ml) |  |
| CCCN(CCC)C(=O)C(CCC(=O)O)NC(=O)c1ccccc1 (stereo not drawn) [proglumide, reference compound] |  |  |  |  |  |  |  |  |  | potentiating action on the analgesic effect of DALA (in words) [4]: highly significant |
